How the values were obtained:
Format in all cases: cell-based, human
[1] = test system: IL1RN mRNA in HEK293T cells; experiment: qPCR of IL1RN mRNA levels (dCas9-PYL-HA, FLAG-ABI-P300, sgRNAs)
Protocol: To study how IL1RN expression levels change, total RNAs from the cell lysates generated in the above experiment were purified and then subjected to qPCR analysis to quantify mRNA levels.
Human embryonic kidney cell HEK293T (American Type Culture Collection, Manassas, Va.) was cultured in Dulbecco's modified Eagle's medium (DMEM) (Gibco) with 10% FBS (Atlanta Biologicals), 1× GlutaMax (Gibco, Thermo Fisher Scientific, Inc., Waltham, Mass.), and 1× penicillin/streptomycin (Pen/Strep; Gibco, Thermo Fisher Scientific, Inc., Waltham, Mass.). Cells (100,000/ml) were plated in 24-well or 10-cm cell culture plate the day before transfection. For each well of 24-well plate transfection, 500 ng of dCas9-PYL-HA, 420 ng of FLAG-ABI-P300, and a total amount of 200-ng mix of gRNAs, with a 50-ng per each gRNA, were mixed with 50×(v/w) Opti-MEM (Gibco, Thermo Fisher Scientific, Inc., Waltham, Mass.), then incubate with the same volume of 3 μg PEI-Opti-MEM solution for 20 minutes at room temperature. Then, 100 μL of PEI-combined plasmids were added to every single well of 24-well plate and cultured for 24 hours before experiments were performed. For a 10 cm plate, 1 mL of PEI-combined plasmids were needed. After six hours transfection, cells were washed and incubated for another 1-72 hours before experiments were performed.
Total RNA was extracted using the EZNA Total RNA Kit I (Omega Bio-tek, Inc., Norcross, Ga.). qPCR reactions were performed on cDNA prepared from 1,000 ng of total cellular RNA using the High-Capacity cDNA Reverse Transcription Kit (Applied Biosystems Co., Thermo Fisher Scientific, Inc., Foster City, Calif.). TaqMan qPCR probes (Thermo Fisher Scientific, Inc., Waltham, Mass. IL1RN, Hs00893626; GRM2, Hs00968358; HBA, Hs00361191; MYOD1 Hs02330075; GAPDH, Hs99999905) and Fast Advanced Master Mix (Life Technologies Co., Co., Thermo Fisher Scientific, Inc., Carlsbad, Calif.) were used in multiplexed reactions and 384-well format in a 7900HT Fast Real-Time PCR System (Applied Biosystems Co., Thermo Fisher Scientific, Inc., Foster City, Calif.). All measurements were performed at least in triplicate. Data were analyzed using the SDS software, version 2.4 (Applied Biosystems Co., Thermo Fisher Scientific, Inc., Foster City, Calif.), by the ΔΔCt method: the Ct values of target gene were normalized to Ct values of GAPDH, the folds of target gene expression changes were normalized to experimental controls. Analyzed data are reported as the mean±s.e.m. for biological replicates. In ChIP assays, the Ct values of antibodies pulled down segments were normalized to the Ct values of 10% input.

[2] = test system: HBA locus in HEK293T cells; experiment: ChIP-qPCR of FLAG-ABI-P300 and H3K27Ac at the HBA locus; conditions: HBA sgRNAs; ABA treatment for 48 hours
Protocol: (§1) To determine if the new method can be used to modify H3K27Ac at other gene loci, sgRNAs were designed that target the promoter region of other genes with low expression levels in HEK293T cells, including GRM2, HBA and MYOD1 (Table 1).
Human embryonic kidney cell HEK293T (American Type Culture Collection, Manassas, Va.) was cultured in Dulbecco's modified Eagle's medium (DMEM) (Gibco) with 10% FBS (Atlanta Biologicals), 1× GlutaMax (Gibco, Thermo Fisher Scientific, Inc., Waltham, Mass.), and 1× penicillin/streptomycin (Pen/Strep; Gibco, Thermo Fisher Scientific, Inc., Waltham, Mass.). Cells (100,000/ml) were plated in 24-well or 10-cm cell culture plate the day before transfection. For each well of 24-well plate transfection, 500 ng of dCas9-PYL-HA, 420 ng of FLAG-ABI-P300, and a total amount of 200-ng mix of gRNAs, with a 50-ng per each gRNA, were mixed with 50×(v/w) Opti-MEM (Gibco, Thermo Fisher Scientific, Inc., Waltham, Mass.), then incubate with the same volume of 3 μg PEI-Opti-MEM solution for 20 minutes at room temperature. Then, 100 μL of PEI-combined plasmids were added to every single well of 24-well plate and cultured for 24 hours before experiments were performed. For a 10 cm plate, 1 mL of PEI-combined plasmids were needed. After six hours transfection, cells were washed and incubated for another 1-72 hours before experiments were performed. […]

[3] = test system: MYOD1 mRNA in HEK293T cells; experiment: qPCR of MYOD1 mRNA levels; conditions: MYOD1 sgRNAs; ABA vs DMSO
Protocol: as §1
(§2) Human embryonic kidney cell HEK293T (American Type Culture Collection, Manassas, Va.) was cultured in Dulbecco's modified Eagle's medium (DMEM) (Gibco) with 10% FBS (Atlanta Biologicals), 1× GlutaMax (Gibco, Thermo Fisher Scientific, Inc., Waltham, Mass.), and 1× penicillin/streptomycin (Pen/Strep; Gibco, Thermo Fisher Scientific, Inc., Waltham, Mass.). Cells (100,000/ml) were plated in 24-well or 10-cm cell culture plate the day before transfection. […]
(§3) Total RNA was extracted using the EZNA Total RNA Kit I (Omega Bio-tek, Inc., Norcross, Ga.). qPCR reactions were performed on cDNA prepared from 1,000 ng of total cellular RNA using the High-Capacity cDNA Reverse Transcription Kit (Applied Biosystems Co., Thermo Fisher Scientific, Inc., Foster City, Calif.). […] Data were analyzed using the SDS software, version 2.4 (Applied Biosystems Co., Thermo Fisher Scientific, Inc., Foster City, Calif.), by the ΔΔCt method: the Ct values of target gene were normalized to Ct values of GAPDH, the folds of target gene expression changes were normalized to experimental controls. Analyzed data are reported as the mean±s.e.m. for biological replicates. […]

[4] = test system: HBA mRNA in HEK293T cells; experiment: qPCR of HBA mRNA levels; conditions: HBA sgRNAs; ABA vs DMSO
Protocol: as §1, §2, §3

CC1=CC(=O)CC(C)(C)[C@@]1(O)/C=C/C(C)=C\C(=O)O [ABA, abscisic acid]
IL1RN mRNA levels after washing ([1]; ABA for 12, 24 or 48 hours, then washed): well correlated with the changes in H3K27Ac levels
IL1RN mRNA level with P300 mutant (D1399Y) lacking acetyltransferase activity ([1]; FLAG-ABI-P300 D1399Y, 100 μM ABA for 24 hours): did not increase
IL1RN mRNA level ([1]; cells transfected with ABI-P300, dCas9-PYL and IL1RN sgRNAs, treated with ABA (100 μM, 24 hours)): IL1RN mRNA level increases
IL1RN mRNA when sgRNAs designed for GRM2, HBA or MYOD1 were used ([1]; sgRNAs for GRM2, HBA or MYOD1 in place of IL1RN, 24-hour ABA treatment): no increase in IL1RN mRNA was observed
time at which the IL1RN mRNA level increases ([1]; time course after ABA addition): four hours after ABA addition
time until which IL1RN mRNA continues to increase rapidly ([1]; time course after ABA addition): about 24 hours
enrichment of FLAG-ABI-P300 at the HBA locus [2]: causes the enrichment
enrichment of H3K27Ac at the HBA locus [2]: causes the enrichment
level of MYOD1 mRNA [3]: increases correspondingly
level of HBA mRNA [4]: increases correspondingly

From patent publication US20190256827A1, “EPIGENOME EDITING SYSTEMS AND METHODS” (STC.UNM, priority 2017, published 2019)
